Data as given in patent US20170304178A1, “Peptides and Their Use in the Treatment of Skin” (AVON PRODUCTS, INC., priority 2014, published 2017).
Marks after values point to notes of the source that are not given here. Residues, ends and D or L forms follow the SMILES beside them.

Key:
[1] = test system: human dermal fibroblast cells; experiment: Secreted pro-collagen I in media of human dermal fibroblasts (HTRF human pro-collagen I kit); assay type: cell-based; settings: 48 h, percent change relative to vehicle control
Method: (§1) Human dermal fibroblast cells were grown in a 96 well plate in DMEM media (available from Corning, N.Y.) supplemented with 10% Fetal Bovine Serum (FBS) and L-glutamine (0.07×10^5 cells/plate). After reaching about 75% confluence, cells were transferred into DMEM media without FBS and incubated for 4-6 hours. Next, cells were treated with peptides of Formulas I-V at 0.00001%, 0.0001%, 0.001% final concentration in DMEM media without FBS for 48 h. After treatment the media were collected, and cell viability was measured using MTT. The amount of secreted collagen was tested in the media using HTRF human pro-collagen I kit (Cisbio Inc, Bedford, Mass.). The amount of secreted Hyaluronic Acid (HA) was tested in the media using HA Elisa kit (available from Corgenix, Broomfield, Colo.).
(§2) Results are summarized in Table 1 below as percent change of pro-collagen I and HA production relative to vehicle control: […]

[2] = test system: human dermal fibroblast cells; experiment: Secreted hyaluronic acid (HA) in media of human dermal fibroblasts (HA Elisa kit); assay type: cell-based; settings: 48 h, percent change relative to vehicle control
Method: as §1, §2

Compound	Increase in Pro-Collagen I Production ([1]; peptide concentration 0.00001%)	Increase in HA Production ([2]; peptide concentration 0.001%)	Increase in Pro-Collagen I Production ([1]; peptide concentration 0.001%)	Increase in HA Production ([2]; peptide concentration 0.0001%)
CC(NC(=O)CNC(=O)C(CC(=O)O)NC(=O)C(CCCCN)NC(=O)C(C)NC(=O)C(N)C(C)O)C(=O)NC(C(=O)O)C1CCCN1 (stereo not drawn) [TAKDGAP (SEQ ID NO: 3), Thr-Ala-Lys-Asp-Gly-Ala-Pro]	+10-30%**	+50-90%	–	–
CC(C)CC(N)C(=O)NC(CCCNC(=N)N)C(=O)NC(CC(C)C)C(=O)NC(CCCCN)C(=O)O (stereo not drawn) [LRLK (SEQ ID NO: 1), Leu-Arg-Leu-Lys] (H-LRLK-OH; configuration not given here)	–	+20-50%	–	–
CCC(C)C(N)C(=O)NC(Cc1ccccc1)C(=O)NCC(=O)NCC(=O)NC(C(=O)NC(C(=O)NC(Cc1ccc(O)cc1)C(=O)NC(CCCNC(=N)N)C(=O)NC(CO)C(=O)O)C(C)C)C(C)O (stereo not drawn) [IFGGTVYRS (SEQ ID NO: 4), Ile-Phe-Gly-Gly-Thr-Val-Tyr-Arg-Ser] (H-IFGGTVYRS-OH; configuration not given here)	–	+50-90%	+10-30%	–
CSCCC(N)C(=O)NC(C(=O)NC(C(=O)O)C(C)C)C(C)C (stereo not drawn) [MVV (SEQ ID NO: 2), Met-Val-Val] (H-Met-Val-Val-OH; configuration not given here)	–	–	–	+20-50%
CCC(C)C(NC(=O)C(CCCCN)NC(=O)C(NC(=O)C(NC(=O)C(N)CCCNC(=N)N)C(C)O)C1CCCN1)C(=O)NC(CO)C(=O)NC(CCCCN)C(=O)NC(C(=O)NC(C(=O)NC(CCCCN)C(=O)NC(Cc1ccccc1)C(=O)NC(CCC(=O)O)C(=O)NC(CC(C)C)C(=O)NC(CO)C(=O)NCC(=O)O)C(C)CC)C1CCCN1 (stereo not drawn) [RTPKISKPIKFELSG (SEQ ID NO: 5), Arg-Thr-Pro-Lys-Ile-Ser-Lys-Pro-Ile-Lys-Phe-Glu-Leu-Ser-Gly]	–	+20-50%	–	–
